In one experiment the test system is U3017 cells. In words: Survival assay (MTT), U3017. It is filed as cell-based, human. The conditions noted are these: Homo sapiens, U3017, Glioma, Grade IV, 72 hours. On the procedure:
(§1) Cells were passed between 70 and 90% confluence.
(§2) Cells were incubated with the drugs for 72 hours.

The subject of the next experiment is CB152 cells. Description: Survival assay (MTT), CB152. It is filed as cell-based, human. The conditions noted are these: Homo sapiens, CB152, Glioma, Grade IV, 72 hours. On the procedure: as §1, §2
The next experiment concerns DIPG007 cells. Description: Survival assay (MTT), DIPG007. The conditions noted are these: Homo sapiens, DIPG007, Glioma, Grade IV, 72 hours. It is filed as cell-based, human. On the procedure:
as §1, §2

Experiment [1] relates to SF-188 grade IV glioma cells. Description: Apoptosis flow cytometry (Annexin V / 7AAD). It is filed as cell-based, human. The conditions noted are these: SF-188 cells, 100 μM, 72 hours. The protocol:
100,000 cells were seeded in a 6-well plate and incubated with 100 μM of Temozolomide, 2′-Deoxy-5-hydroxymethylcytidine, 5-Formyl-2′-deoxycytidine or DMSO for 72 hours. Detection of apoptotic cells was assessed using Annexin V-7-amino-actinomycin D (7-AAD) Apoptotic Detection Kit (Nordic Biosite AS, Cat. Nr. 640922) according to manufacturer's protocol.
Fluorescence-activated cell sorting analysis was performed on LSR Fortessa (BD Biosciences) and data were analyzed on FlowJo software. All experiments were performed in triplicates.
It was therefore evaluated whether 5-formyl-2′deoxycytidine and 5-hydroxymethyl-2′-deoxycytidine were killing sensitive cells or causing them to be delayed in the cell cycle. SF-188 grade IV glioma cells were treated either with DMSO, temozolomide, 5-formyl-2′-deoxycytidine, or 5-hydroxymethyl-2′-deoxycytidine at the indicated concentration. […] A majority of SF-188 cells treated with 5-formyl-2′-deoxycytidine or 5-hydroxymethyl-2′-deoxycytidine were dead according to the flow cytometry profile (FIG. 2A).
(A flow cytometer gives signals particle by particle.)

The next experiment deals with MCF-7 cells. Description: Survival assay (MTT), MCF-7. It is filed as cell-based, human. The conditions noted are these: Homo sapiens, MCF7. On the procedure:
as §1, §2

In a further experiment the test system is SF188 cells. Description: Survival assay (MTT), SF188. The conditions noted are these: Homo sapiens, SF-188, SF188, Glioma, Grade IV, 72 hours. It is filed as cell-based, human. On the procedure: as §1, §2
In a further experiment the test system is U87-MG. Description: Glioblastoma Multiforme mouse xenograft model. It is filed as in vivo, mice. The conditions noted are these: five doses; for tumour volume: over all time points. On the procedure: Standard agent, Temozolomide, was provided by Oslo University Hospital in powder form and was formulated fresh prior to each dose by first adding appropriate volume of DMSO to pre-weighed compound, then adding appropriate volumes of Solutol (RTM) and PBS (5% DMSO/5% Solutol (RTM)/90% PBS). […] Standard agent, Temozolomide, was administered at a dose volume of 10 mL/kg.
The human brain malignant glioma cell line, U87-MG (ATCC HTB-14, epithelial glioblastoma), was obtained from American Type Culture Collection (ATCC). The cells were cultured in Minimum essential medium containing 5% fetal bovine serum (FBS) at 37° C., with 5% CO2 in an incubator.
Female (nu/nu) nude mice aged 6-7 weeks obtained from BioLasco Taiwan (under Charles River Laboratories Licensee) were used. The animals were housed in individually ventilated cages (IVC, 36 Mini Isolator system). The allocation for 5 animals was 27×20×14 in cm. All animals were maintained in a hygienic environment under controlled temperature (20-24° C.) and humidity (30%-70%) with 12-hour light/dark cycle.
Viable U87-MG (ATCC HTB-14) cells were subcutaneously (SC) implanted (5×10^6 cells/mouse in PBS at 0.2 mL/mouse) into the right flank of female nu/nu mice. When group mean tumor volumes reached approximately 129 mm^3 to 131 mm^3, tumor implanted mice were divided into four treatment groups, each group containing eight animals, and dose administrations were initiated (denoted as Day 1).
5-hydroxymethyl-2′-deoxycytidine, 5-formyl-2′-deoxycytidine at 2000 mg/kg and corresponding vehicle (5% DMSO/5% Solutol (RTM)/90% PBS) were administered intraperitoneally (IP) once every three days for a total of five administrations. Temozolomide at 40 mg/kg was administered orally (PO) once daily for five total administrations.
The tumor volume, body weight, mortality, and signs of overt toxicity were monitored and recorded twice weekly for 29 days. Tumor volume (mm^3) was estimated according to the ellipsoid formula as: length×(width)^2×0.5. Tumor growth inhibition (T/C) was calculated by the following formula:
[formula] • Cn: Tumor weight measured on Day n in the control group • Tn: Tumor weight measured on Day n in the treated group • % T/C value≤42% was considered significant antitumor activity (#). Percent tumor growth inhibition (TGI) was also calculated by the following formula:
[formula] • % TGI value≥58% was considered significant antitumor activity (#).
Two-way ANOVA (RTM) followed by Bonferroni test was also used to ascertain the statistically significant difference compared to the negative control group during study; Day 1 through to Day 29. Differences are considered significant at p<0.05 (*).
5-formyl-2′deoxycytidine and 5-hydroxymethyl-2′-deoxycytidine were evaluated in a Glioblastoma Multiforme mouse xenograft model as described above (Materials and Methods). U87-MG cells were injected subcutaneously into the flank of nude mice. Tumours were allowed to form as described above (Materials and Methods). After the tumours reached between 129 mm^3 and 131 mm^3 animals were divided into 4 groups—two treatment groups, a negative control group and a positive control group. The two treatment groups were 5-formyl-2′-deoxycytidine and 5-hydroxymethyl-2′-deoxycytidine. […]
The tumour volume (FIG. 1C), body weight (FIG. 1D), mortality, and signs of overt toxicity were monitored and recorded twice weekly for 29 days. […]

In a further experiment the test system is A375 cells. Description: Survival assay (MTT), A375. It is filed as cell-based, human. The conditions noted are these: Homo sapiens, A-375. On the procedure:
as §1, §2

The mark [2] stands for this setting: MCF-7, Epithelial Adenocarcinoma (Breast), 72 hours, MTT.
[3] abbreviates: A375, Malignant Melanoma, 72 hours, MTT.
[4] abbreviates: MCF-7, Tables 6 and 7, unit inferred.
Setting [5] is: 2000 mg/kg IP every three days, end of study (Day 29).
Setting [6] is: A375, Tables 6 and 7, unit inferred.

For orientation: IC50 means the concentration that inhibits the measured activity by half. A low value points to greater potency. `Cn1nnc2c(C(N)=O)ncn2c1=O` [Temozolomide, 4-methyl-5-oxo-2,3,4,6,8-pentazabicyclo[4.3.0]nona-2,7,9-triene-9-carboxamide, reference compound]: the IC50 in the experiment with U3017 cells was more than 100 µM; in the experiment on CB152 cells, more than 100 µM; in the experiment on DIPG007 cells, more than 100 µM; in the experiment with MCF-7 cells (setting [2]), more than 25 µM; in the experiment on SF188 cells, more than 100 µM; in the experiment on A375 cells (setting [3]), more than 25 µM. Moreover, the “dead cells by flow cytometry (Annexin V, 7AAD)” value (“dead cells by flow cytometry” below) in experiment [1] was “slight increase in the amount of dead cells”. Further, the “tumour growth inhibition (TGI)” value in the experiment on U87-MG (positive control, 40 mg/kg PO once daily, end of study) was found to be 94%.
Consider `Nc1nc(=O)n([C@H]2C[C@H](O)[C@@H](CO)O2)cc1C=O` [2d5fC, 5-formyl-2′-deoxycytidine], for which the IC50 was more than 100 µM in the experiment on U3017 cells; more than 100 µM with CB152 cells; more than 100 µM with DIPG007 cells; 0.866 µM with MCF-7 cells (setting [2]); 0.866 µM in the experiment with MCF-7 cells (setting [4]); 28.2 µM in the experiment with SF188 cells. In addition, the IC50 with A375 cells (setting [3]) and in the experiment on A375 cells (setting [6]) was 3.19 µM in each case. In experiment [1], the “dead cells by flow cytometry” value was “dead and not arrested at a cell cycle checkpoint”. Further, the “tumour growth inhibition (TGI)” value with U87-MG (setting [5]) turned out to be 83%. Moreover, the tumour volume result with U87-MG (2000 mg/kg IP every three days) is given as “marked decrease in tumour volume”.
For the compound `Nc1nc(=O)n([C@H]2C[C@H](O)[C@@H](CO)O2)cc1CO` [2d5hmC, 5-hydroxymethyl-2′-deoxycytidine], the IC50 in the experiment with U3017 cells is 14.1 µM; in the experiment with CB152 cells, more than 100 µM; with DIPG007 cells, more than 100 µM; in the experiment on MCF-7 cells (setting [2]), more than 25 µM; in the experiment on MCF-7 cells (setting [4]) it was not below 25 µM; with SF188 cells it was 8.97 µM. In addition, the IC50 in the experiment on A375 cells (setting [3]) was more than 25 µM; with A375 cells (setting [6]) it was not below 25 µM. For the same compound, the “dead cells by flow cytometry” value in experiment [1] is “dead and not arrested at a cell cycle checkpoint”. In addition, in the experiment on U87-MG (setting [5]), the “tumour growth inhibition (TGI)” value stood at 93%. Besides, the tumour volume entry in the experiment with U87-MG (2000 mg/kg IP every three days) is “marked decrease in tumour volume”.

The values above are taken from US12605397B2, “Deoxy-cytidine or uridine derivatives for use in cancer therapies” (HEMISPHERIAN AS, priority 2019, dated 2026).
